Patent US9796674B2, “Benzyl urea derivatives for activating TGF-beta signaling” (THE BOARD OF TRUSTEES OF THE LELAND STANFORD JUNIOR …, priority 2013, dated 2017)
“Also recorded” adds a separate entry of the source.

Key:
B103 neuroblastoma cells = experiment: B103 live/dead cell assay with Aβ; type: cell-based, rat; conditions: for cell survival, protection relative to TGF-β1: percentage of live cells / percentage of rescue
Experimental: SRI-11381 is neuroprotective in vitro: To determine if the TGF-β-inducing capacity of SRI-011381 would translate into biologically beneficial effects, its neuroprotective potential was tested in B103 rat neuroblastoma cells and primary mouse neurons derived from E16 forebrains. B103 neuroblastoma cells were cultured in 24-well plates and exposed to an oligomeric preparation of Aβ together with compounds or recombinant TGF-β.
FIGS. 3A-3H illustrate that SRI-011381 protects cultured neurons from Aβ toxicity. B103 neuroblastoma cells were incubated with Aβ for 24 h. The compounds and TGF-β were added 2 h before Aβ. Following incubations live and dead cells were assessed with calcein-acetoxymethylester (CAM) and SYTOX Orange (Invitrogen), respectively.
B103 neuroblastoma cells: B103 neuroblastoma cells were cultured in Dulbecco's modified Eagle's medium containing 10% fetal calf serum and 1% v/v penicillin/streptomycin (Invitrogen) in a 5% CO2: 95% air atmosphere. 10^4 cells/well were seeded onto 24 well plates and cultured for 24 h before Aβ was added. The compounds and TGF-β were added 2 h before Aβ. Following a 24 h incubation with Aβ, live and dead cells were assessed using calcein-acetoxymethylester (CAM) and SYTOX Orange (Invitrogen), respectively. AM is a membrane-permeable, fluorogenic esterase substrate that is hydrolyzed intracellularly to a green fluorescent product (calcein) in live cells. SYTOX Orange is a high-affinity nucleic acid stain that easily penetrates cells with compromised plasma membranes and yet will not cross the membranes of live cells. After incubation with SYTOX Orange, the nucleic acids of dead cells fluoresce bright orange. […] Five fields were randomly selected from each well and the cell numbers were analyzed by ImageJ (NIH) in a blinded fashion.

TGF-β signaling = experiment: Bioluminescence in SBE-luc reporter mice; type: in vivo, mouse; conditions: brain/CNS bioluminescence
Experimental: The most promising compounds out of these screens were tested for their neuroprotective potential in B103 rat neuroblastoma cells and primary mouse neurons derived from E16 forebrains. Compounds were also tested for their capacity to reduce varicosities and tortuosity in primary mouse neurons. Accordingly, novel neuroprotectant small molecules have been identified that are as potent or better than TGF-β. Importantly, they fulfilled the critical neuroprotective properties in neuronal cell lines and primary hippocampal mouse neurons. • Compounds based on the 11H core: The present compositions and methods include salts of the active compounds and formulations, in particular pharmaceutically acceptable compositions for administration to an animal or human subject and containing active compounds. 129 analogs or derivatives of 11H were screened by a cell-based assay for their ability to increase TGF-β activity, i.e. to act as a TGF agonist. In particular, one compound (a) designated as SRI-011381 (381) was identified as especially advantageous, although active derivatives thereof are contemplated and have been identified. • Effects of TGF-β analogs in vitro: Some of the small-molecule TGF-β agonist compounds were tested for neuroprotection activity and toxicity in vitro (cell culture). In addition, the mechanism of action of the agonists was explored using cells with different genetic backgrounds with respect to protein of the […] signaling pathway. • Animal studies: Transgenic mice harboring the SBE-luc reporter gene were generated and used to test the derivatives of compound 11H in vivo. These “reporter mice” mice express SBE-luc (i.e., “the transgene”) in all cells of the body. Intraperitoneal injection of luciferin into SBE-luc-expressing mice produces bioluminescence generated by luciferase and photons penetrating the skull can be imaged using sensitive camera systems.
SBE-luciferase transgenic mice: Two-month old SBE-luciferase transgenic mice receive different concentrations of a test compound either s.q., ip., or orally by gavage. […] Following administration of the test or control compounds, mice are injected with luciferin ip. At, for example, 2, 8, and 16 hours following injection of luciferin, the mice are imaged to detect bioluminescence as described above. Brains may be harvested 16 hours following test compound injection, and may be divided sagittally. For example, one hemi-brain can be homogenized in luciferase assay buffer for measurement of reporter gene activation, while the other hemi-brain can be frozen at −70° C. for future study, including sectioning into individual brain regions

hippocampal neurons = experiment: Aβ-induced neuritic dystrophy in primary hippocampal neurons; type: cell-based, mouse; conditions: for average numbers of dystrophic neurites per neuron: 21-22 DIV
Experimental: Primary hippocampal neurons isolated from E16 CF1 embryos were aged for 6-7 days or 21-22 days, then challenged with 5 μM oligomeric Aβ in the presence or absence of compounds, and assayed for neurotoxicity (cell survival as above) or neuritic dystrophy, respectively. For quantification of neuritic dystrophy, fixed cells were immune-stained with a MAP-2 monoclonal antibody to label dendrites.
Primary hippocampal neurons were isolated from E16 CF1 embryos. Twenty-four-well culture plates were coated with 10 μg/ml poly-L-lysine. Cells were seeded overnight at a density of 30,000 cells/well in DMEM/F-12 medium supplemented with 10% FBS and penicillin/streptomycin, and subsequently maintained in Neurobasal medium containing 2% B27 supplement. Cells were aged for 6-7 days or 21-22 days, then challenged with 5 μM Aβ in the presence or absence of compounds, and assayed for neurotoxicity or neuritic dystrophy, respectively. Cells were treated for 72 h for neurotoxicity assay and 48 h for neuritic dystrophy assay. At the end of treatment, an equal volume of 4% PFA was added, plates incubated at room temperature for 15 min and then washed three times with DPBS. Cells were kept in the last wash of DPBS at 4° C. until being counted or stained.
For quantification of neuritic dystrophy, fixed cells were immunostained with a MAP-2 monoclonal antibody (Sigma-Aldrich). […] MAP2 positive dendrites were observed under an inverted fluorescence microscope (Olympus). […] To quantify neurite curvature, an established method was modified for assessment of neurite curvature. Neurite tracks were digitized and approximated by a series of connected line segments using ImageJ (NIH). The angle of each segment was determined using a Sigmaplot macro, and the results were averaged to give the ‘mean differential curvature’. This parameter reflects the degree of neurite curvature with an increasing value indicating increased curvature. Neurite counting and quantification were performed in randomly selected fields (5 fields/well). All quantitative assessments were done by investigators blinded with respect to treatment conditions.

[1] = Metabolic stability in human liver microsomes; type: in vitro ADME
Experimental: Metabolic Stability: SRI-011381 (1 and 10 μM) was incubated with human liver microsomes (pooled from several donors) and cofactors.

O=C(NC1CCCCC1)N(Cc1ccccc1)CC1CCNCC1 [SRI-011381, 1-Benzyl-3-cyclohexyl-1-(piperidin-4-ylmethyl)urea]
cell survival, protection relative to TGF-β1 (B103 neuroblastoma cells): better protection than TGF-β1 | activation of TGF-β signaling in SBE-luc reporter mice (TGF-β signaling): penetrate into the CNS and activate TGF-β signaling; also recorded: bioavailable in the CNS and activate TGF-β signaling; also recorded: activates TGF-β signaling in the brain | activation of TGF-β signaling in SBE-luc reporter mice (TGF-β signaling; listed as 381): activates TGF-β signaling in reporter mice | average numbers of dystrophic neurites per neuron (hippocampal neurons; 5 μM Aβ, 48 h): markedly reduced | compound unchanged ([1]; 1 and 10 μM, after 60 min): Approximately 80%

O=C(NC1CCCCC1)N(C/C=C/c1ccc(F)cc1)CC1CCNCC1 [SRI-011382]
cell survival, protection (B103 neuroblastoma cells; 1 μM, 5 μM Aβ): slightly lower protection | cell survival, protection relative to TGF-β (B103 neuroblastoma cells; 3 μM, TGF-β 1 ng/ml): better protection than TGF-β | Aβ-induced cell death (B103 neuroblastoma cells; Aβ 24 h, added 2 h before Aβ): inhibit Aβ-induced cell death | cell survival, protection relative to TGF-β1 (B103 neuroblastoma cells): better protection than TGF-β1 | activation of TGF-β signaling in SBE-luc reporter mice (TGF-β signaling): bioavailable in the CNS and activate TGF-β signaling | Aβ-induced increase in neurite curvature (mean differential curvature) (hippocampal neurons): prevented | Aβ-induced tortuosity (hippocampal neurons; 3 μM compound, 5 μM Aβ, 48 h): markedly reduced | average numbers of dystrophic neurites per neuron (hippocampal neurons; 5 μM Aβ, 48 h): markedly reduced | metabolic stability [1]: desirable level of metabolic stability
